Source: US7202280B2, “Methods for the treatment and prevention of pancreatitis and for induction of liver regeneration” (priority 2002, dated 2007)

How the values were obtained:
Format in all cases: in vivo, rat
[1] = tested on: rats with cerulein-induced pancreatitis; assay: Cerulein-induced pancreatitis
Method: FIG. 7 Effect of pancreatic-associated edema by methylspermidine in rats with cerulein-induced pancreatitis. The animals received cerulein 24 h before sacrifice with or without methylspermidine (50 mg/kg) as a single dose 4 h before cerulein. Three to five animals in each group. Me-Spd, methylspermidine. Administration of cerulein induces a non-necrotizing pancreatitis in rodents. Cerulein-induced pancreatitis is characterized by a pronounced increase in plasma/serum amylase activity.

[2] = tested on: MT-SSAT transgenic rats; assay: Zinc-induced pancreatitis, prevention by pretreatment with analogue (plasma α-amylase, pancreatic histology); set-up: key to Histological scoring (0 to 4): Edema / Histological scoring (0 to 4): Inflammation: 0 (absent); 1 (minimal); 4 (maximal); conditions: for Histological scoring (0 to 4): Edema / Histological scoring (0 to 4): Inflammation / Histological scoring (0 to 4): Necrosis / Histological scoring (0 to 4): Vacuolization: Zn; for Plasma α-amylase activity / acinar necrosis (pancreatic histology): transgenic rats; for Plasma α-amylase activity: zinc 10 mg/kg; for acinar necrosis (pancreatic histology): zinc
Method: FIG. 2. Plasma α-amylase activity in syngenic and transgenic rats after zinc and methylspermidine. The animals were treated as in FIG. 1. Six to eight animals in each group. *p<0.05 as compared with zinc-treated animals. ***p<0.001 as compared with untreated animals. Me-spd, methylspermidine.
FIGS. 3a–3d. Histology of pancreas of transgenic rats after zinc and methylspermidine. The animals were treated as in FIGS. 1a–1d. Magnification ×125. […] The animals received zinc (10 mg/kg) 24 h before sacrifice without (FIG. 3b) or with methylspermidine (50 mg/kg) either as single dose 4 h before zinc (FIG. 3c) or as two doses 20 h and 4 h before zinc (FIG. 3d).
Formalin-fixed pancreatic specimens were embedded in paraffin, cut into 5-μm-thick slices, and stained with hematoxylin/eosin. The stained sections were coded and scored by the participating gastroenterologist (K.-H. H.) according to the method of Niederau et al. (Niederau, C., Liddle, R. A., Ferrell, L. D., and Grendell, J. H. (1986) J. Clin. Invest. 78, 1056–1063).
FIG. 3 depicts pancreatic histology in transgenic animals after saline (FIG. 3a), after zinc alone (FIG. 3b), after zinc and single dose of the analogue (FIG. 3c) and after zinc and two doses of the analogue (FIG. 3d). The acinar structure of untreated transgenic animal is entirely normal (FIG. 3a) whereas zinc induced distinct pancreatitis with more than 50% of the acinar cells undergoing necrosis (FIG. 3b). […] Table A summarizes the histological scoring of pancreatic specimens from all animals. […] A single dose of the analogue administered prior to zinc reduced the extent of necrosis while after two repeated doses of the compound very little, if any, necrosis was present (Table A).
MT-SSAT (UKUR30) transgenic rats received zinc (10 mg/kg i.p.) 24 h before sacrifice either alone or in the combination with Me2SPM (25 mg/kg i.p.) administered twice 20 h and 4 h before zinc. There were three animals in each group. Plasma amylase activity was measured as a marker of pancreatitis.

[3] = tested on: SSAT; assay: SSAT activity in SSAT transgenic rats after polyamine analogues without or with MDL72527
Method: FIGS. 9A–9B. Effect of polyamine analogues without or with MDL72527 on hepatic SSAT (FIG. 9A) and PAO (FIG. 9B) activities in SSAT transgenic rats. The rats were treated with the drugs as described in the legend for FIGS. 8A–8D. There were three to four animals in each group.
The production of transgenic Wistar rats (UKUR30) and mice (UKU181) harboring metallothionein-SSAT fusion gene (Suppola, S., Pietilä, M., Parkkinen, J. J., Korhonen, V. P., Alhonen, L., Halmekytö, M., Porter, C. W., and Jänne, J. (1999) Biochem. J. 338, 311–316) has been described earlier (Alhonen, L., Parkkinen, J. J., Keinänen, T., Sinervirta, R., Herzig, K. H., and Jänne, J. (2000) Proc. Natl. Acad. Sci. U.S.A. 97, 8290–8295; Lukkarinen, J., Gröhn, O., Sinervirta, R., Järvinen, A., Kauppinen, R. A., Jänne, J., and Alhonen, L. (1997) Stroke 28, 639–645). Partial hepatectomy was carried out according to the original method of Higgins and Anderson (Higgins, G. H., and Anderson, R. M. (1931) Arch. Pathol. 12, 186–202). […]
PAO activity was measured to verify the effectiveness of MDL72527 treatment and to determine whether the analogues have any effect on its activity. […]

[4] = MT-SSAT transgenic rats, zinc 10 mg/kg i.p. 24 h, Me2SPM 25 mg/kg i.p. 20 h and 4 h before zinc

For `CC(N)CCNCCCCN` (stereo not drawn) [α-methylspermidine, 1-methylspermidine], the amylase levels ([1]; cerulein-induced pancreatitis) was “does not normalize amylase levels”, the pancreatitis-associated edema ([1]; cerulein, single dose 50 mg/kg) was “reduces the pancreatitis-associated edema” and the “Histological scoring (0 to 4): Edema” value ([2]; Sg rats, 1 × Me-spd 50 mg/kg) was 1. The “Histological scoring (0 to 4): Inflammation” value ([2]; Sg rats, 1 × Me-spd 50 mg/kg) was 1, the “Histological scoring (0 to 4): Necrosis” value ([2]; Sg rats, 1 × Me-spd 50 mg/kg) was 0 (0, 0–5%) and the “Histological scoring (0 to 4): Vacuolization” value ([2]; Sg rats, 1 × Me-spd 50 mg/kg) was 0 (0, 0–5%). The “Histological scoring (0 to 4): Edema” value ([2]; Sg rats, 2 × Me-spd 50 mg/kg) was 1, the “Histological scoring (0 to 4): Inflammation” value ([2]; Sg rats, 2 × Me-spd 50 mg/kg) was 0 and the “Histological scoring (0 to 4): Necrosis” value ([2]; Sg rats, 2 × Me-spd 50 mg/kg) was 0 (0, 0–5%). The “Histological scoring (0 to 4): Vacuolization” value ([2]; Sg rats, 2 × Me-spd 50 mg/kg) was 0 (0, 0–5%), the “Histological scoring (0 to 4): Edema” value ([2]; Tg rats, 1 × Me-spd 50 mg/kg) was 1 and the “Histological scoring (0 to 4): Inflammation” value ([2]; Tg rats, 1 × Me-spd 50 mg/kg) was 1. The “Histological scoring (0 to 4): Necrosis” value ([2]; Tg rats, 1 × Me-spd 50 mg/kg) was 2 (2, 15–35%), the “Histological scoring (0 to 4): Vacuolization” value ([2]; Tg rats, 1 × Me-spd 50 mg/kg) was 0 (0, 0–5%) and the “Histological scoring (0 to 4): Edema” value ([2]; Tg rats, 2 × Me-spd 50 mg/kg) was 1. The “Histological scoring (0 to 4): Inflammation” value ([2]; Tg rats, 2 × Me-spd 50 mg/kg) was 1, the “Histological scoring (0 to 4): Necrosis” value ([2]; Tg rats, 2 × Me-spd 50 mg/kg) was 0–1 and the “Histological scoring (0 to 4): Vacuolization” value ([2]; Tg rats, 2 × Me-spd 50 mg/kg) was 1 (1, 5–15%). The “Plasma α-amylase activity” value ([2]; single dose 50 mg/kg 4 h before zinc) was “decreased after a single dose”, the “Plasma α-amylase activity” value ([2]; two doses 50 mg/kg 20 h and 4 h before zinc) was “fully normalized after two repeated doses” and the “acinar necrosis (pancreatic histology)” value ([2]; single dose before zinc) was “very little necrosis was present”. For the same molecule, the “acinar necrosis (pancreatic histology)” value ([2]; two doses before zinc) was “none after two doses”.
For `CC(N)CCNCCCCNCCC(C)N` (stereo not drawn) [bis-α-methylspermine, 1,12-dimethylspermine], the “hepatic SSAT activity” value ([3]; analogue 25 mg/kg i.p. twice) was “significantly increased hepatic SSAT activity”, the “hepatic SSAT activity” value ([3]; analogue combined with MDL72527) was “further enhanced” and the Pancreatic histology [2, 4] was “modest edema”. For the same molecule, the plasma amylase [2, 4] was 2744 ± 837 and the prevention of pancreatitis ([2]; rats with depleted polyamine pools, 25 mg/kg 2 injections i.p. 20/4 hours prior to zinc) was “prevents pancreatitis”.
